Test results reported in BigSolDB 2.1.

O=C(O)CCc1nc(-c2ccccc2)c(-c2ccccc2)o1
solubility (mole fraction)
Settings	278.15 K	283.15 K	288.15 K	293.15 K	298.15 K	303.15 K	308.15 K	313.15 K	318.15 K	323.15 K
in DMAc	0.205	0.213	0.223	0.232	0.243	0.252	0.261	0.273	0.284	0.295
in DMF	0.136	0.146	0.154	0.164	0.174	0.186	0.197	0.207	0.219	0.232
in DMSO	–	–	–	0.214	0.226	0.24	0.256	0.272	0.287	0.303
in ethanol	0.00257	0.00315	0.00388	0.00476	0.00592	0.00716	0.00894	0.0112	0.014	0.0177
in ethyl acetate	0.00398	0.00472	0.00558	0.00661	0.00778	0.00925	0.011	0.0129	0.0151	0.0178
in methanol	0.0023	0.00282	0.00343	0.00426	0.00523	0.00657	0.00821	0.0103	0.013	0.0164
in methyl acetate	0.00533	0.00626	0.00735	0.00867	0.0102	0.012	0.0146	0.0167	0.0192	0.022
in n-butanol	0.00266	0.00328	0.00422	0.00533	0.00663	0.008	0.0105	0.0131	0.0164	0.0205
in n-butyl acetate	0.00293	0.00347	0.00416	0.00489	0.00593	0.00707	0.00842	0.01	0.012	0.0143
in n-pentanol	0.00266	0.00349	0.00458	0.00561	0.00701	0.00864	0.0108	0.0134	0.0168	0.021
in n-pentyl acetate	0.00274	0.00331	0.00387	0.0046	0.0055	0.00654	0.00782	0.00931	0.0111	0.0132
in n-propanol	0.00255	0.00326	0.00414	0.00519	0.00637	0.00794	0.01	0.0122	0.0161	0.0201
in n-propyl acetate	0.0032	0.00386	0.00463	0.00534	0.00656	0.00781	0.00935	0.0111	0.0132	0.0158
